Active and inactive are the calls of the source.
Legend:
[1] = molecular target: Mitogen-activated protein kinase kinase kinase kinase 4 (Homo sapiens) (UniProt O95819); test: Inhibition of human MAP4K4 at 1 uM using casein as substrate in presence of 33P-ATP by ProQinase assay
[2] = molecular target: Serine/threonine-protein kinase Nek7 (Homo sapiens) (UniProt Q8TDX7); test: Inhibition of human NEK7 at 1 uM using casein as substrate in presence of 33P-ATP by ProQinase assay
[3] = molecular target: Protein kinase C zeta type (Homo sapiens) (UniProt Q05513); test: Inhibition of recombinant human N-terminal His6-tagged PKCzeta (2 to 592 residues) expressed in baculovirus infected Sf21 cells assessed as remaining activity at 1 uM using ERMRPRKRQGSVRRV as substrate incubated for 30 mins in presence of [gamma-33P]ATP by filter binding method relative to control
Protein kinase C zeta type (Homo sapiens), sequence (Q05513 whole entry, the tested form may be a part): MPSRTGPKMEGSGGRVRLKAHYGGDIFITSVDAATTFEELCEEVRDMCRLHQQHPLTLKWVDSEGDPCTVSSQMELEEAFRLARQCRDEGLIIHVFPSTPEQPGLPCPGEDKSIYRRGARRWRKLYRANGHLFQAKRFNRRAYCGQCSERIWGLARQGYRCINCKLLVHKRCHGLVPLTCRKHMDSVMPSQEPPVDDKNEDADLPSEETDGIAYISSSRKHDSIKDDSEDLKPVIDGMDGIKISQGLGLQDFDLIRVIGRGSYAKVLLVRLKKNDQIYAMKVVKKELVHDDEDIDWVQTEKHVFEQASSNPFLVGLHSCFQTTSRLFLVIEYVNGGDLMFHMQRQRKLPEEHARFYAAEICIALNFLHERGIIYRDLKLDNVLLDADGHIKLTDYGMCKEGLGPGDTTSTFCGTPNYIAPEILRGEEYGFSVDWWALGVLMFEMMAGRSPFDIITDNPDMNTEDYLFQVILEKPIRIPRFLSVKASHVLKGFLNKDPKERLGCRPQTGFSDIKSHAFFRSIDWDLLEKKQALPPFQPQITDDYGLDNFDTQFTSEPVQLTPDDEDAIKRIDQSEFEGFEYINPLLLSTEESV

[4] = molecular target: Phosphatidylinositol 4-phosphate 3-kinase C2 domain-containing subunit alpha (Homo sapiens, UniProt O00443); test: Inhibition of human PIK3C2A using PIP2/PS as substrate by ADP-Glo assay
[5] = molecular target: Mitogen-activated protein kinase 12 (Homo sapiens) (UniProt P53778); test: Inhibition of recombinant human N-terminal GST-tagged P38gamma (1 to 367 residues) expressed in Escherichia coli assessed as remaining activity at 1 uM using MBP as substrate incubated for 30 mins in presence of [gamma-33P]ATP by filter binding method relative to control
Mitogen-activated protein kinase 12 (Homo sapiens), sequence (P53778 whole entry, the tested form may be a part): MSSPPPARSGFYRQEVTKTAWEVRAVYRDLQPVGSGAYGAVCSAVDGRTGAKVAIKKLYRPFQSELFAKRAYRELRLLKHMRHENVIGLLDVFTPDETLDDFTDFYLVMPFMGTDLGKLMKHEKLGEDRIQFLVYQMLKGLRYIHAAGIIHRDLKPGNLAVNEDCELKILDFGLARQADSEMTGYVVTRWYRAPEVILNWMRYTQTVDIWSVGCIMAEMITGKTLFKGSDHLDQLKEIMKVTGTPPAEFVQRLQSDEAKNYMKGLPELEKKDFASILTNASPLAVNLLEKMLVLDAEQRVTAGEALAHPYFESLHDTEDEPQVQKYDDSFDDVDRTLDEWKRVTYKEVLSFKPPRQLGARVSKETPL

[6] = molecular target: Mitogen-activated protein kinase kinase kinase 8 (Homo sapiens) (UniProt P41279); test: Inhibition of human COT at 1 uM using RBER-CHKtide as substrate in presence of 33P-ATP by ProQinase assay
[7] = molecular target: Protein kinase C beta type (Homo sapiens) (UniProt P05771); test: Inhibition of human PKCbeta1 at 1 uM using 3xChocktide-PKC as substrate in presence of 33P-ATP by ProQinase assay
Protein kinase C beta type (Homo sapiens), sequence (P05771 2-671 limits assumed): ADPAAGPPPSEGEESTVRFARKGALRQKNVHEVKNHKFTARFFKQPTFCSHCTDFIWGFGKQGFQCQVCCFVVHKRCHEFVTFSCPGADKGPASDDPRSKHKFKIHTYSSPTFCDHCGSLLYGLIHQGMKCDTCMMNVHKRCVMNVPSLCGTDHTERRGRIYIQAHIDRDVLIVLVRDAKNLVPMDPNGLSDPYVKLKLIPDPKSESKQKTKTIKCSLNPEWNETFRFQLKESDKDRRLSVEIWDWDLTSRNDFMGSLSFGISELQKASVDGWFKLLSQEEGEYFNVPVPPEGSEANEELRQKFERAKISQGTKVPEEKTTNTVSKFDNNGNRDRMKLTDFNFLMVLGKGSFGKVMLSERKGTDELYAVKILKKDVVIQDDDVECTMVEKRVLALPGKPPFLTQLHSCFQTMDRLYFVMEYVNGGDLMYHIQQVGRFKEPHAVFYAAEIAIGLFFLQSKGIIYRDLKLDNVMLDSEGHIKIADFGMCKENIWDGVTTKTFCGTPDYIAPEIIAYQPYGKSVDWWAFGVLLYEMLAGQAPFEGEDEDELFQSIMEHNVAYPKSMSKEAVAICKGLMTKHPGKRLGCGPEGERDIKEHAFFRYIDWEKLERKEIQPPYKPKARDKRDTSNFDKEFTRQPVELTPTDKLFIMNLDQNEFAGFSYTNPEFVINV

[8] = molecular target: Eukaryotic translation initiation factor 2-alpha kinase 3 (Homo sapiens) (UniProt Q9NZJ5); test: Inhibition of human EIF2AK3 at 1 uM using casein as substrate in presence of 33P-ATP by ProQinase assay
[9] = molecular target: T1, 3-phosphoinositide-dependent protein kinase 1 (Homo sapiens) (UniProt O15530); test: Inhibition of human PDK1 at 1 uM using bio-4xCHKT as substrate in presence of 33P-ATP by ProQinase assay
T1 sequence (whole entry): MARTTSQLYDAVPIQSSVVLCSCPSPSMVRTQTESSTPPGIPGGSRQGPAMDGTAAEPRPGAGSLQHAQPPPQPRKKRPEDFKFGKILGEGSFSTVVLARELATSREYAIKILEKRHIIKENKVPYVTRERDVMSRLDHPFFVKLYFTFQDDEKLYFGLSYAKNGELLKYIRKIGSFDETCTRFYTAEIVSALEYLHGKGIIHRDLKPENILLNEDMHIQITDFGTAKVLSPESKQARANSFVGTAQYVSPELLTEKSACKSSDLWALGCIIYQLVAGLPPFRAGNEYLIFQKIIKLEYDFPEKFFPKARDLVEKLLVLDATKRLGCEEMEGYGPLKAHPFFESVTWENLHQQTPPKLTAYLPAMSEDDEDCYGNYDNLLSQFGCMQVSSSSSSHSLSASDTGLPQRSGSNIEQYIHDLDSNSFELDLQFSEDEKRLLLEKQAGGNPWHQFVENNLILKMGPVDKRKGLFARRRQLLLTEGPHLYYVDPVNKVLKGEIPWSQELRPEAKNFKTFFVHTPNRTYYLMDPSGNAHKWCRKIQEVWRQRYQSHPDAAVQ

[10] = molecular target: CDK7/Cyclin H/MNAT1 (Homo sapiens) (UniProt P51946+P50613+P51948); test: Inhibition of human CDK7/CyclinH/MAT1 at 1 uM using RBER-CHKtide as substrate in presence of 33P-ATP by ProQinase assay; format: protein-complex assay
[11] = molecular target: Glycogen synthase kinase-3 beta (Homo sapiens) (UniProt P49841); test: Inhibition of human GSK3beta at 1 uM using RBER-CHKtide as substrate in presence of 33P-ATP by ProQinase assay
[12] = molecular target: Tyrosine-protein kinase ABL2 (Homo sapiens) (UniProt P42684); test: Inhibition of human ABL2 at 1 uM using poly(Ala,Glu,Lys,Tyr) as substrate in presence of 33P-ATP by ProQinase assay
[13] = molecular target: Serine/threonine-protein kinase TAO3 (Homo sapiens) (UniProt Q9H2K8); test: Inhibition of human TAOK3 at 1 uM using 3xChocktide-PKC as substrate in presence of 33P-ATP by ProQinase assay
[14] = molecular target: Tyrosine-protein kinase BTK (Homo sapiens) (UniProt Q06187); test: Inhibition of recombinant human N-terminal His6-tagged BTK (2 to 659 residues) expressed in baculovirus infected Sf21 cells assessed as remaining activity at 1 uM using KVEKIGEGTYGVVYK as substrate incubated for 30 mins in presence of [gamma-33P]ATP by filter binding method relative to control
Tyrosine-protein kinase BTK (Homo sapiens), sequence (Q06187 whole entry, the tested form may be a part): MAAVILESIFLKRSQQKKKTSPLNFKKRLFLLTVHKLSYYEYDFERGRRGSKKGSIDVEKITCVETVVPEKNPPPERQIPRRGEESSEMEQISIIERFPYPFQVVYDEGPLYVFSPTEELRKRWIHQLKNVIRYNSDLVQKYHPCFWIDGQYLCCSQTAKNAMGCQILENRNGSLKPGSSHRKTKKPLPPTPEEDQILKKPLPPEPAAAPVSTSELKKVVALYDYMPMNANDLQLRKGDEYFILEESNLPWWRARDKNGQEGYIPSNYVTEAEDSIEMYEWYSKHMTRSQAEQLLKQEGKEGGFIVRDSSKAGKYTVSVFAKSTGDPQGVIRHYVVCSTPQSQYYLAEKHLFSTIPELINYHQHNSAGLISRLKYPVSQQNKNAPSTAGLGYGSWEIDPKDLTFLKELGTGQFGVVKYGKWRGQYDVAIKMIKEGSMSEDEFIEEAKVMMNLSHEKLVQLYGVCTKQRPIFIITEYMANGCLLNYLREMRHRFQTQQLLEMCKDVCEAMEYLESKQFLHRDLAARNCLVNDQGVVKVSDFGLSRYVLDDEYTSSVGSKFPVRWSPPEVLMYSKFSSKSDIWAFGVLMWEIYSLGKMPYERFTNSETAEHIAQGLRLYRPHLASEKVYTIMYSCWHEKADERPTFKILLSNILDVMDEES

[15] = molecular target: Serine/threonine-protein kinase Nek11 (Homo sapiens) (UniProt Q8NG66); test: Inhibition of human NEK11 at 1 uM using MBP as substrate in presence of 33P-ATP by ProQinase assay
Serine/threonine-protein kinase Nek11 (Homo sapiens), sequence (Q8NG66 whole entry): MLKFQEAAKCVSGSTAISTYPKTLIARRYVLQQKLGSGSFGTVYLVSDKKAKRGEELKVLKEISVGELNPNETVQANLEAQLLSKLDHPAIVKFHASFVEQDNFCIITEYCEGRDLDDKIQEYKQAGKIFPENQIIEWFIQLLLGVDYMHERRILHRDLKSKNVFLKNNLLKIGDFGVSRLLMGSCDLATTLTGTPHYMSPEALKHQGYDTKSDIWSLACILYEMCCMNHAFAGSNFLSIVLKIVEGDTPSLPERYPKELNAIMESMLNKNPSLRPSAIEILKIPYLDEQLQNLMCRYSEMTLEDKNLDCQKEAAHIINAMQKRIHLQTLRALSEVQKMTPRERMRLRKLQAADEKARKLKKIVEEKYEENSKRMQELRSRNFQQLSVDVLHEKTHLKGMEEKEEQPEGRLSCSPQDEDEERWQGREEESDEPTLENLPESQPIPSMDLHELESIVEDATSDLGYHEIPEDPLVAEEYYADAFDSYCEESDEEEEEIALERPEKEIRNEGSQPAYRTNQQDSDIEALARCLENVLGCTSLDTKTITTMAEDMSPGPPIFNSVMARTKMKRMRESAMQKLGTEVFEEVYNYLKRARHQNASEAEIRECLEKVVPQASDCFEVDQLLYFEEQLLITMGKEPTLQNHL

[16] = molecular target: Homeodomain-interacting protein kinase 3 (Homo sapiens) (UniProt Q9H422); test: Inhibition of human HIPK3 at 1 uM using RBER-CHKtide as substrate in presence of 33P-ATP by ProQinase assay
[17] = molecular target: Rhodopsin kinase GRK7 (Homo sapiens) (UniProt Q8WTQ7); test: Inhibition of human GRK7 at 1 uM using casein as substrate in presence of 33P-ATP by ProQinase assay
Rhodopsin kinase GRK7 (Homo sapiens), sequence (Q8WTQ7 whole entry): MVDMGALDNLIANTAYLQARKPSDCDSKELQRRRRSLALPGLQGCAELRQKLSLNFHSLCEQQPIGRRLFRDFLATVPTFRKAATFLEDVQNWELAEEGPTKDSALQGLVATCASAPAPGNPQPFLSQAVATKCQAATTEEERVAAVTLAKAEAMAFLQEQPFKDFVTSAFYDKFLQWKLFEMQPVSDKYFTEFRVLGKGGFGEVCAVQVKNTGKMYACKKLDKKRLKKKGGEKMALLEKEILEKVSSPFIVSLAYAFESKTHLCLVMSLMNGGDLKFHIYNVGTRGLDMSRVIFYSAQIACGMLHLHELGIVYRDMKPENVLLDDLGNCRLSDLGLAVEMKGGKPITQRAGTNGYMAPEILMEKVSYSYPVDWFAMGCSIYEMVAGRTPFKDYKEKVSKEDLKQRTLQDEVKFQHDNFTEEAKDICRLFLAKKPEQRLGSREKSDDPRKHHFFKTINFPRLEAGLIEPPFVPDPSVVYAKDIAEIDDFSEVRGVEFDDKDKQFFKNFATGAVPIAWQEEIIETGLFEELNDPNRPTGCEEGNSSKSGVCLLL

[18] = molecular target: CDK8/Cyclin C (Homo sapiens) (UniProt P49336+P24863); test: Inhibition of human CDK8/CyclinC at 1 uM using RBER-CHKtide as substrate in presence of 33P-ATP by ProQinase assay; format: protein-complex assay
[19] = molecular target: Activin receptor type-2B (Homo sapiens) (UniProt Q13705); test: Inhibition of human ACVR2B at 1 uM using RB-CTF as substrate in presence of 33P-ATP by ProQinase assay
Activin receptor type-2B (Homo sapiens), sequence (Q13705 whole entry): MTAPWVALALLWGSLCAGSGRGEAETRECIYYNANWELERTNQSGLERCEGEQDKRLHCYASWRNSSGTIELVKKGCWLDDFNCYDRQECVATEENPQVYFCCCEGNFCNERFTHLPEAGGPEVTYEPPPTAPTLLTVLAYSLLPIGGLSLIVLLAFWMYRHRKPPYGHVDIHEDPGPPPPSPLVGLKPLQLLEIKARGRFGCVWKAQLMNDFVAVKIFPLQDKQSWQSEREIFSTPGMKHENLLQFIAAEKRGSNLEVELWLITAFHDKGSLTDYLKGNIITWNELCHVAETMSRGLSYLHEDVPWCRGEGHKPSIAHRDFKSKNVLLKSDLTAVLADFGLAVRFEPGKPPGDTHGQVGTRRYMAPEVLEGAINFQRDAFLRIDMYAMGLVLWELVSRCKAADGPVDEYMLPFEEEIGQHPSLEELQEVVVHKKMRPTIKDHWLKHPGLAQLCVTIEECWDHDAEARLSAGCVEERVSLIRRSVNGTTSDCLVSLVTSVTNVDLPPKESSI

[20] = molecular target: Calcium/calmodulin-dependent protein kinase kinase 2 (Homo sapiens) (UniProt Q96RR4); test: Inhibition of human CAMKK2 at 1 uM using RBER-GSK3 as substrate in presence of 33P-ATP by ProQinase assay
[21] = molecular target: Tyrosine-protein kinase ZAP-70 (Homo sapiens) (UniProt P43403); test: Inhibition of recombinant human N-terminal His6-tagged ZAP70 (1 to 619 residues) expressed in baculovirus infected Sf21 cells assessed as remaining activity at 1 uM using Poly(Glu,Tyr) as substrate incubated for 30 mins in presence of [gamma-33P]ATP by filter binding method relative to control
Tyrosine-protein kinase ZAP-70 (Homo sapiens), sequence (P43403 whole entry, the tested form may be a part): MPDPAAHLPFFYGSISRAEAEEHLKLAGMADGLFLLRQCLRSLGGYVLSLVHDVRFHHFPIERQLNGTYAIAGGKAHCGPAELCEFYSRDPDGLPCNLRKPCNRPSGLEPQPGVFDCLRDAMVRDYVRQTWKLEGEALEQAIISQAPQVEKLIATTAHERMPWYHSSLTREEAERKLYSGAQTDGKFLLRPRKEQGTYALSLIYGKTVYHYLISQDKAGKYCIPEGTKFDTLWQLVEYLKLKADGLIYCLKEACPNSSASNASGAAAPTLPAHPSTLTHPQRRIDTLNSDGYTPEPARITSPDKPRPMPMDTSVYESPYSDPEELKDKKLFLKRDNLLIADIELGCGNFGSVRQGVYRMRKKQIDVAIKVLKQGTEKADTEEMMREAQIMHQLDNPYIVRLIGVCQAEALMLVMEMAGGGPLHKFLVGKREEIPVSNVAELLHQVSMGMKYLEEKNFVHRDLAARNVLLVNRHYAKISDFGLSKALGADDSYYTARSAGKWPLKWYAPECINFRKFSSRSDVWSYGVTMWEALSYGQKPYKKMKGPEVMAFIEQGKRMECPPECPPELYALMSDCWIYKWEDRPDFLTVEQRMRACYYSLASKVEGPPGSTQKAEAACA

Serine/threonine-protein kinase Nek7 (Homo sapiens), sequence (Q8TDX7 whole entry, looked up, the tested form may be a part): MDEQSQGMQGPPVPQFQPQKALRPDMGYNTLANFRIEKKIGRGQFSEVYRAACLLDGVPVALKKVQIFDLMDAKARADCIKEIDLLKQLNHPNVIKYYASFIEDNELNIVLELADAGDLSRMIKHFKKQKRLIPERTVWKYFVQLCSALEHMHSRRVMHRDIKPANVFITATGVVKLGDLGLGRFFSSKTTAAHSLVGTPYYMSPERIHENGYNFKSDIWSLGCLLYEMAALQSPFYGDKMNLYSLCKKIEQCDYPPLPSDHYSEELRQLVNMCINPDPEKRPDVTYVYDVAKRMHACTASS

CC(C)(O)CNc1ncc(-c2ccnc(Nc3ccnc(Cl)c3)n2)c(CC2CC2)n1
133%: Activity [5]
103%: Activity [3]
inactive: inhibition [1] | inhibition [2] | inhibition [6] | inhibition [7] | inhibition [8] | inhibition [9] | inhibition [10] | inhibition [11] | inhibition [12] | inhibition [13] | inhibition [15] | inhibition [16] | inhibition [17] | inhibition [18] | inhibition [19] | inhibition [20]
> 10 µM: IC50 [4]
110%: Activity [21]
108%: Activity [14]

— ChEMBL document CHEMBL5705899 (Biochem J, 2014)
